Assay results as given in PubChem BioAssay (NCI).
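Test compounds were applied to cells in 96-well plates for 48 hours at 5 doses. Here, GI50 denotes the concentration required for 50% inhibition of growth. The concentration for full growth arrest is given as TGI.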

Experiments:
Experiment in all cases: NCI anticancer screen, dose series, 48 h
[1] = system: CCRF-CEM leukemia
[2] = system: A498 renal
[3] = system: HL-60(TB) leukemia
[4] = system: HT29 colon
[5] = system: OVCAR-5 ovarian
[6] = system: A549 NSCLC
[7] = system: NCI-H23 lung
[8] = system: COLO 205 colon
[9] = system: SF-295 CNS
[10] = system: SK-MEL-5 melanoma

SMILES	GI50 [1] [µM]	TGI [1] [µM]	GI50 [2] [µM]	TGI [2] [µM]	GI50 [3] [µM]	TGI [3] [µM]	GI50 [4] [µM]	TGI [4] [µM]	GI50 [5] [µM]	TGI [5] [µM]	GI50 [6] [µM]	TGI [6] [µM]	GI50 [7] [µM]	TGI [7] [µM]	GI50 [8] [µM]	TGI [8] [µM]	GI50 [9] [µM]	TGI [9] [µM]	GI50 [10] [µM]	TGI [10] [µM]
CCn1c(-c2nonc2N)nc2ccc(F)cc21	> 25	> 25	13.6	> 25	> 25	> 25	> 25	> 25	> 25	> 25	> 25	> 25	> 25	> 25	> 25	> 25	> 25	> 25	> 25	> 25
CCCNCc1cc(C)cc2c1nc(N1CCNCC1)n2Cc1cc(C)c(F)c(C)c1	2.2	4.71			1.76	3.8	2.09	5.29	7.58	22.3	4.54	17.1	12.8	27.3	1.82	3.42	1.79	3.57	1.75	3.21
CN(C)c1nc(-c2cccs2)n2nc(-c3ccc(Cl)cc3)cc2n1	> 100	> 100			> 100	> 100			> 100	> 100			6.51	> 100			2.49	> 100		
COc1cc(/C=C\c2ccc(O)cc2)cc(OC)c1OC		> 100		> 100		> 29.3		> 100		> 100		> 100				13.9		5.48		18.6
Clc1ccc(CNc2nc3ccccc3nc2-c2cccs2)c(Cl)c1		> 100				> 100		> 100		> 100		> 100		> 100		> 100		> 100		
CC(=O)OCCOCBr		> 100		> 100		> 100		> 100		> 100		> 100				> 100		> 100		> 100
CC1=Nc2c(ccc3c2C(=O)c2ccccc2C3=O)NC(c2ccncc2)C1 (stereo not given)		> 100		> 100		> 100	> 100	> 100		> 100		> 100	> 100	> 100			> 100	> 100		> 100
CCCCCC(C(O)C#N)C(O)(C(F)(F)F)C(F)(F)F (stereo not given)		> 10				> 10		> 10		> 10		> 10		> 10		> 10		> 10		> 10
COc1ccccc1C(=O)c1ccc2ccccc2c1		> 100				21.8		85.7		> 100		> 100		> 100		61.5		79.8		19.8
CN(C)C(=S)/N=c1\ss/c(=N\S(=O)(=O)c2ccccc2)n1-c1ccccc1		> 100		> 100		> 100		> 100		> 100		> 100		> 100				> 100		78.3
Clc1ccc(OCc2nnc3n2N=C(c2ccc(Cl)cc2Cl)CS3)c(Cl)c1	22.3	89.7			35.6	> 100	24.4	83.3	31.4	> 100	28.8	95.8	22.5	55.4	34.7	> 100	23.9	79.7	15.5	33
CN1CCN(C)C1c1cccc(C2N(C)CCN2C)c1		> 100		> 100		> 100		> 100		> 100				> 100		> 100		> 100		
Cc1c(C(=O)NN)nnn1-c1ccnc2c(C(F)(F)F)cccc12	> 100	> 100	> 100	> 100	> 100	> 100			> 100	> 100	> 100	> 100	> 100	> 100	> 100	> 100	> 100	> 100	> 100	> 100
Cc1ccc(C(=O)CC(Sc2cccc(Cl)c2Cl)c2ccc(Cl)cc2)cc1C (stereo not given)	18.7	94.4	19.2	46.8	30.6	> 100			22.4	59.8	19.2	52.6	17.4	32.6	20.8	46.5	16.9	37.2	16.6	33
CCN(CCO)CCNc1ccc(C)c2sc3cc(Cl)ccc3c(=O)c12	1.52	3.46			1.56	3.55	1.28	2.62	1.59	3.3	1.73	3.28	1.63	3.45	1.14	2.62	1.61	3.19	1.54	2.88
Oc1c2c(c(O)c3ccccc13)=N[C@@H](c1ccccc1)[C@H](c1ccccc1)N=2		> 100		> 100		> 100		> 100		> 100		> 100		> 100				> 100		> 100
Cn1c(N)nc2c(nc(OCc3ccccc3)n2C2OC(CO)C(O)C2O)c1=O (stereo not given)		> 100		> 100		> 100		> 100		> 100		> 100				> 100		> 100		> 100
O=C1c2ccccc2-c2cccc3ccc(Cc4ccccc4)c1c23		> 100				> 100		> 100		> 100		> 100		> 100		> 100		> 100		> 100
